Reference: patent US20190320654A1, “VOLATILE ORGANIC COMPOUNDS FOR INHIBITING FUNGAL GROWTH” (Georgia State University Research Foundation, Inc., priority 2014, published 2019)

What was measured:
P. destructans conidia = assay: VOC exposure assay with P. destructans conidia in a contained airspace; for anti-P. destructans activity, growth from conidia: key: +: growth from spores; −: no visible growth; assay type: cell-based, Pseudogymnoascus destructans; conditions: for inhibitory activity on conidia: 11 days of exposure; for anti-P. destructans activity against conidia / inhibition of conidia with activated carbon: 30 μl; for anti-P. destructans activity against conidia: closed system; for inhibition of conidia with activated carbon: control plates containing 1 g activated carbon
Source text: (§1) Volatile organic compounds previously shown to be produced by bacteria [Chuankun X, et al. Soil Biol Biochem. 2004 36:1997-2004; Fernando W G D, et al. Soil Biol Biochem. 2005 37:955-64] were screened for anti-P. destructans activity via VOC exposure to spores and mycelial plugs. The VOCs included: decanal; 2-ethyl-1-hexanol; nonanal; benzothiazole; benzaldehyde; and N,N-dimethyloctylamine (Sigma-Aldrich, Missouri). All VOCs were chosen based on their identification in fungistatic soils and their observed production in bacteria [Chuankun X, et al. Soil Biol Biochem. 2004 36:1997-2004; Fernando W G D, et al. Soil Biol Biochem. 2005 37:955-64]. All VOCs purchased as pure, liquid, research grade reagents and used directly, without modification, in all subsequent assays. A single-compartment Petri plate (150 mm×15 mm) was used for a contained airspace to assess P. destructans growth characteristics in the presence of fungistatic VOCs. Ten microliters of P. destructans conidia suspension (10^6 conidia ml^−1 in PBS) was spread onto SDA plates (35 mm×10 mm). Aliquots of 30, 3.0, or 0.3 μl of each VOC corresponding to maximum possible relative concentrations ranging from 113 ppm (v/v) to 1.13 ppm (v/v) were pipetted onto a sterile filter paper disk (12.7 mm) on a watch glass (75 mm). Each VOC containing disk and watch glass was placed inside a large Petri plate (150 mm 9 15 mm) along with a P. destructans-inoculated SDA plate (35 mm×10 mm) (FIG. 6). P. destructans mycelial plugs cut from the leading edge of actively growing colonies were inserted into fresh SDA plates (35 mm×10 mm) and placed in large Petri plates (150 mm×15 mm) with each formulation or pure VOC containing paper disk and sealed with parafilm M (Sigma-Aldrich, Missouri). […] Unexposed cultures and the addition of activated carbon to exposure assays served as negative controls for each trial. Anti-P. destructans activity was scored on a plus/minus scale for conidia-inoculated plates, and the radial growth from mycelial plugs was used to determine percent inhibition by comparing growth area of VOC exposed plugs to unexposed controls. All assays were performed in triplicate and averaged.

[1] = system: P. destructans mycelial plugs; assay: VOC exposure assay with P. destructans mycelial plugs, radial growth area; assay type: cell-based, Pseudogymnoascus destructans; conditions: for inhibition of radial mycelial growth: 3 μl, up to 14 days
Source text: as §1
Filamentous fungi grow by hyphae elongation and not by distinct cellular division. Accordingly, measuring the difference between the area growth of control agent-exposed mycelial plugs and control plugs has been a vetted method for assessing antimicrobial susceptibility [Fernando W G D, et al. Soil Biol Biochem. 2005 37:955-64; Liu W, et al. Curr Res Bacteriol. 2008 1:128-34; Strobel G A, et al. Microbiology. 2007 153:2613-20]. The use of a ruler to measure the area of mycelial growth of filamentous fungi has its own challenges. Mycelial plugs will often grow asymmetrically, either naturally or because of exposure to the compound being tested. To provide more accurate measurement of mycelial growth, a digital photography and analysis technique was developed.
The GIMP (GNU Image Manipulation Program) is open-source, freely distributed software for image editing and authoring, compatible with GNU/Linux, Microsoft Windows, Mac OS X, Sun OpenSolaris, and FreeBSD operating systems. This software allows for the direct measurement of the number of pixels in a given selected area of a photograph. GIMP version 2.8.2 for Microsoft Windows was used at the time of this writing. A Nikon D3100 digital single lens reflex camera with an 18-55 mm lens was used to capture images. A standard three-leg tripod was used for support during capture.
The camera was attached to the tripod and aimed down to a surface to provide a consistent distance from the lens to the mycelial surface being photographed; ensuring the same pixel to millimeter ratio was retained for all acquired images. Images of mycelial plugs had their corresponding image numbers catalogued for later identification. […]

[2] = 3 μl VOC, 7 day exposure, incubated with activated carbon
[3] = 3 μl VOC, 10 day exposure, incubated with activated carbon
[4] = 30 μl VOC, incubated with activated carbon, 15° C.

Structure (SMILES)	anti-P. destructans activity, growth from conidia (P. destructans conidia; 3 μl VOC, 7 day exposure)	anti-P. destructans activity, growth from conidia (P. destructans conidia; [2])	anti-P. destructans activity, growth from conidia (P. destructans conidia; 3 μl VOC, 10 day exposure)	anti-P. destructans activity, growth from conidia (P. destructans conidia; [3])	inhibitory activity on conidia (P. destructans conidia; 3 μl)	anti-P. destructans activity, growth from conidia (P. destructans conidia; 30 μl VOC, 15° C.)	anti-P. destructans activity, growth from conidia (P. destructans conidia; [4])	anti-P. destructans activity against conidia (P. destructans conidia; 15° C.)	inhibition of conidia with activated carbon (P. destructans conidia)	reduction in growth area ([1]; 0.3 μl, 4° C., 35 days post-inoculation)	inhibition of radial mycelial growth ([1]; 15° C.)	reduction in growth as compared to unexposed controls ([1]; 30 μl, 15° C., 14 days of exposure) [%]	inhibition of growth from conidia (P. destructans conidia; 3 μl, 7 days)	effect on radial growth as compared to unexposed controls ([1]; 0.3 μl, 15° C.)	colony morphology of cultures from conidia (P. destructans conidia; 3 μl, without activated carbon)	reduction in radial growth ([1]; 0.3 μl, 15° C., 14 days of exposure) [%]
CCCCCCCCCC=O [Decanal, decanal]	−	+	−	+	demonstrated inhibitory activity	−	+	demonstrated anti-P. destructans activity	no inhibition	greater than 99%	only minor reductions in radial growth	83				
CCCCCCCCC=O [Nonanal, nonanal]	−	+	−	+	demonstrated inhibitory activity	−	−	demonstrated anti-P. destructans activity								
CCCCCCCCN(C)C [N,N-dimethyloctylamine]	+	+	+	+		−	−	demonstrated anti-P. destructans activity			only minor reductions in radial growth		unable to completely inhibit	induced growth		
CSSSC [dimethyltrisulfide]								demonstrated anti-P. destructans activity								
O=Cc1ccccc1 [Benzaldehyde, benzaldehyde]	−	+	+	+		−	+	demonstrated anti-P. destructans activity	no inhibition							
c1ccc2scnc2c1 [Benzothiazole, benzothiazole]	−	+	+	+		−	−	demonstrated anti-P. destructans activity							unique colony morphology characterized by increased pigmentation of the underside of the culture and diffusion of pigment into the growth media	60
CCCCC(CC)CO (stereo not drawn) [2-ethyl-1-hexanol]	−	+	−	+	demonstrated inhibitory activity	−	+	demonstrated anti-P. destructans activity	no inhibition							
